Test results: patent US11419869B2, “Dosage forms and regimens for amino acid compounds” (Pliant Therapeutics, Inc., priority 2019, dated 2022)

Each molecule was assayed against recombinant human integrin αvβ6 (Homo sapiens (Human), UniProt P06756+P18564) (assay: Solid Phase Integrin αvβ6 Binding Assay (Examples B1, B2)). Conditions: TGFβ1 LAP ligand, values given in four ranges, read-out: αvβ6 Inhibition IC50 (nM)-range.
recombinant human integrin αvβ6, sequence (P06756 31-992): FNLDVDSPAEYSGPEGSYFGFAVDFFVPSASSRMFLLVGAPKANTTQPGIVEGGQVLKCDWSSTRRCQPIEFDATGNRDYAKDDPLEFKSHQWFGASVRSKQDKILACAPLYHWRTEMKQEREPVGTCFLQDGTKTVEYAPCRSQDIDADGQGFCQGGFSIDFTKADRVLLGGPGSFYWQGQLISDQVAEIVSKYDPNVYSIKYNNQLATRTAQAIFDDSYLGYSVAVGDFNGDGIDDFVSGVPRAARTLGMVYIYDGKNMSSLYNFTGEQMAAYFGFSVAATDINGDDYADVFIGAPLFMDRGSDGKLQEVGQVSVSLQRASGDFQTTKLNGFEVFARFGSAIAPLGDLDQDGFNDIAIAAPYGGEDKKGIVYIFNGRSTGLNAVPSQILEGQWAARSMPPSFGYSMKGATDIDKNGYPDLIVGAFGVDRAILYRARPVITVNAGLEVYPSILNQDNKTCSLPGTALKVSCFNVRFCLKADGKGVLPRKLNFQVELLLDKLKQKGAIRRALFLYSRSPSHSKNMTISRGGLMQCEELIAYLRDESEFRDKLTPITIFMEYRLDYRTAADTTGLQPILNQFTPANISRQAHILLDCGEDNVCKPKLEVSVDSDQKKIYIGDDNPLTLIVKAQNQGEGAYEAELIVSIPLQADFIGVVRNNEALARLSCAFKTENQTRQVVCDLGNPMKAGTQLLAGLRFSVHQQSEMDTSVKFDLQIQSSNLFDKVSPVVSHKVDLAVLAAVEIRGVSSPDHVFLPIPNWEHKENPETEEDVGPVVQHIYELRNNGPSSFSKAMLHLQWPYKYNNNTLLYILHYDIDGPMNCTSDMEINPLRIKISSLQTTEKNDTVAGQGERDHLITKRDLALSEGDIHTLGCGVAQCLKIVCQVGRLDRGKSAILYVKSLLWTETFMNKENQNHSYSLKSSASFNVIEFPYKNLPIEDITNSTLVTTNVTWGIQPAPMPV
recombinant human integrin αvβ6, sequence (P18564 22-707): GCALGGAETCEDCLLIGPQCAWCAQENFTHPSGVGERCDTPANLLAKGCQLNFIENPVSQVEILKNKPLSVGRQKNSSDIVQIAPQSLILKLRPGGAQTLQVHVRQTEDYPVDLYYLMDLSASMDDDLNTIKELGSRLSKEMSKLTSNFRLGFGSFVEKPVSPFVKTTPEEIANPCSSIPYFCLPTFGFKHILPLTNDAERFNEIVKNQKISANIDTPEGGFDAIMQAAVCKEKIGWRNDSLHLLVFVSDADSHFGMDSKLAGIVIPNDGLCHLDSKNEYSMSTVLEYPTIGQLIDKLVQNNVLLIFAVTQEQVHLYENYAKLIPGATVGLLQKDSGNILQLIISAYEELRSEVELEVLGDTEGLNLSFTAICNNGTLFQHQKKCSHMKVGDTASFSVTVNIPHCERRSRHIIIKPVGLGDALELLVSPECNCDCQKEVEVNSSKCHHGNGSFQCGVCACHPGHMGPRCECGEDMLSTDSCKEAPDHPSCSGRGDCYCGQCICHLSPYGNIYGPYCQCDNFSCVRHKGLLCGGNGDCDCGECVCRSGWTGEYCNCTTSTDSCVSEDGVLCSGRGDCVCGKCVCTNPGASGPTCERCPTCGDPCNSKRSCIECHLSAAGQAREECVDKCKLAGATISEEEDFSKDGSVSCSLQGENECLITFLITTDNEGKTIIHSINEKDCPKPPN
Procedure: (§1) Microplates were coated with recombinant human integrin αvβ6 (2 μg/mL) in PBS (100 μL/well 25° C., overnight). The coating solution was removed, washed with wash buffer (0.05% Tween 20; 0.5 mM MnCl2; in 1×TBS). The plate was blocked with 200 μL/well of Block Buffer (1% BSA; 5% sucrose; 0.5 mM MnCl2; in 1×TBS) at 37° C. for 2 h. Dilutions of testing compounds and recombinant TGFβ1 LAP (0.67 μg/mL) in binding buffer (0.05% BSA; 2.5% sucrose; 0.5 mM MnCl2; in 1×TBS) were added. The plate was incubated for 2 hours at 25° C., washed, and incubated for 1 hour with Biotin-Anti-hLAP. Bound antibody was detected by peroxidase-conjugated streptavidin. The IC50 values for testing compounds were calculated by four-parameter logistic regression.
The compounds tested were compound samples prepared according to procedures described in the Synthetic Examples section, with the stereochemical purity as indicated in the Examples.
as §1, with “A third series of exemplary compounds was selected for testing in the solid phase integrin αvβ6 binding assay. The compounds tested were compound samples prepared according to procedures described in the Synthetic Examples section, with the stereochemical purity as indicated in the Examples. As in Example B1, microplates were coated” for “Microplates were coated”, “calculated by a four-parameter logistic” for “calculated by four-parameter logistic”
An IC50 of under 50 nM was found for COC[C@@H](F)CN(CCCCc1ccc2c(n1)NCCC2)CC[C@H](Nc1nc(C)nc2cc(F)ccc12)C(=O)O [Compound 32, (S)-2-((7-fluoro-2-methylquinazolin-4-yl)amino)-4-(((S)-2-fluoro-3-methoxypropyl) (4-(5,6,7,8-tetrahydro-1,8-naphthyridin-2-yl)butyl)amino) butanoic acid] in this work.
An IC50 of under 50 nM was found for Cc1nc(N[C@@H](CCN(CCCCc2ccc3c(n2)NCCC3)CC2CC(F)(F)C2)C(=O)O)c2ccc(F)cc2n1 [Compound 33, (S)-4-(((3,3-difluorocyclobutyl)methyl) (4-(5,6,7,8-tetrahydro-1,8-naphthyridin-2-yl)butyl)amino)-2-((7-fluoro-2-methylquinazolin-4-yl)amino) butanoic acid] in this work.
An IC50 of over 1000 nM was found for COCCN(CCCCc1ccc2c(n1)NCCC2)CC[C@H](Nc1nccc2ccccc12)C(=O)O [Compound 34, (S)-2-(isoquinolin-1-ylamino)-4-((2-methoxyethyl) (4-(5,6,7,8-tetrahydro-1,8-naphthyridin-2-yl)butyl)amino) butanoic acid] in this work.
An IC50 of under 50 nM was found for O=C(O)[C@H](CCN(CCCCc1ccc2c(n1)NCCC2)CCOC(F)F)Nc1ncnc2ccccc12 [Compound 35, (S)-4-((2-(difluoromethoxy)ethyl) (4-(5,6,7,8-tetrahydro-1,8-naphthyridin-2-yl)butyl)amino)-2-(quinazolin-4-ylamino) butanoic acid] in this work.
An IC50 of over 1000 nM was found for COCCN(CCCCc1ccc2c(n1)NCCC2)CC[C@H](Nc1ccnc2ccccc12)C(=O)O [Compound 36, (S)-4-((2-methoxyethyl) (4-(5,6,7,8-tetrahydro-1,8-naphthyridin-2-yl)butyl)amino)-2-(quinolin-4-ylamino) butanoic acid] in this work.
An IC50 of under 50 nM was found for COCCN(CCCCc1ccc2c(n1)NCCC2)CC[C@H](Nc1ncnc2c(Cl)cccc12)C(=O)O [Compound 38, (S)-2-((8-chloroquinazolin-4-yl)amino)-4-((2-methoxyethyl) (4-(5,6,7,8-tetrahydro-1,8-naphthyridin-2-yl)butyl)amino) butanoic acid] in this work.
An IC50 of under 50 nM was found for O=C(O)[C@H](CCN(CCCCc1ccc2c(n1)NCCC2)CCOCC(F)(F)F)Nc1ncnc2ccccc12 [Compound 39, (S)-2-(quinazolin-4-ylamino)-4-((4-(5,6,7,8-tetrahydro-1,8-naphthyridin-2-yl)butyl) (2-(2,2,2-trifluoroethoxy)ethyl)amino) butanoic acid] in this work.
An IC50 of under 50 nM was found for Cc1nc(N[C@@H](CCN(CCCCc2ccc3c(n2)NCCC3)CCOc2ccc(F)cc2)C(=O)O)c2ccc(F)cc2n1 [Compound 40, (S)-2-((7-fluoro-2-methylquinazolin-4-yl)amino)-4-((2-(4-fluorophenoxy)ethyl) (4-(5,6,7,8-tetrahydro-1,8-naphthyridin-2-yl)butyl)amino) butanoic acid] in this work.
An IC50 of under 50 nM was found for COc1ccc2c(N[C@@H](CCN(CCCF)CCCCc3ccc4c(n3)NCCC4)C(=O)O)ncnc2c1 [Compound 41, (S)-4-((3-fluoropropyl) (4-(5,6,7,8-tetrahydro-1,8-naphthyridin-2-yl)butyl)amino)-2-((7-methoxyquinazolin-4-yl)amino) butanoic acid] in this work.
An IC50 of under 50 nM was found for Cc1nc(N[C@@H](CCN(CCCCc2ccc3c(n2)NCCC3)CCOC2CC2(F)F)C(=O)O)c2ccc(F)cc2n1 (stereo partly drawn) [Compound 42, (2S)-4-((2-(2,2-difluorocyclopropoxy)ethyl) (4-(5,6,7,8-tetrahydro-1,8-naphthyridin-2-yl)butyl)amino)-2-((7-fluoro-2-methylquinazolin-4-yl)amino) butanoic acid] in this work.
An IC50 of under 50 nM was found for COc1cccc2c(N[C@@H](CCN(CCCF)CCCCc3ccc4c(n3)NCCC4)C(=O)O)ncnc12 [Compound 43, (S)-4-((3-fluoropropyl) (4-(5,6,7,8-tetrahydro-1,8-naphthyridin-2-yl)butyl)amino)-2-((8-methoxyquinazolin-4-yl)amino) butanoic acid] in this work.
An IC50 of under 50 nM was found for COCCN(CCCCc1ccc2c(n1)NCCC2)CC[C@H](Nc1cc(-n2cccn2)ncn1)C(=O)O [Compound 44, (S)-2-((6-(1H-pyrazol-1-yl)pyrimidin-4-yl)amino)-4-((2-methoxyethyl) (4-(5,6,7,8-tetrahydro-1,8-naphthyridin-2-yl)butyl)amino) butanoic acid] in this work.
An IC50 of under 50 nM was found for Cc1cc(C)n(CCN(CCCCc2ccc3c(n2)NCCC3)CC[C@H](Nc2ncnc3ccccc23)C(=O)O)n1 [Compound 45, (S)-4-((2-(3,5-dimethyl-1H-pyrazol-1-yl)ethyl) (4-(5,6,7,8-tetrahydro-1,8-naphthyridin-2-yl)butyl)amino)-2-(quinazolin-4-ylamino) butanoic acid] in this work.
An IC50 of under 50 nM was found for COC[C@@H](F)CN(CCCCc1ccc2c(n1)NCCC2)CC[C@H](Nc1nc(C)nc2ccccc12)C(=O)O [Compound 46, (S)-4-(((S)-2-fluoro-3-methoxypropyl) (4-(5,6,7,8-tetrahydro-1,8-naphthyridin-2-yl)butyl)amino)-2-((2-methylquinazolin-4-yl)amino) butanoic acid] in this work.
An IC50 of under 50 nM was found for O=C(O)[C@H](CCN(CCCCc1ccc2c(n1)NCCC2)CCOc1cc(F)cc(F)c1)Nc1ncnc2ccccc12 [Compound 47, (S)-4-((2-(3,5-difluorophenoxy)ethyl) (4-(5,6,7,8-tetrahydro-1,8-naphthyridin-2-yl)butyl)amino)-2-(quinazolin-4-ylamino) butanoic acid] in this work.
An IC50 of under 50 nM was found for O=C(O)[C@H](CCN(CCCCc1ccc2c(n1)NCCC2)CCOc1ccccn1)Nc1ncnc2c(Cl)cccc12 [Compound 48, (S)-2-((8-chloroquinazolin-4-yl)amino)-4-((2-(pyridin-2-yloxy)ethyl) (4-(5,6,7,8-tetrahydro-1,8-naphthyridin-2-yl)butyl)amino) butanoic acid] in this work.
An IC50 of under 50 nM was found for O=C(O)[C@H](CCN(CCCCc1ccc2c(n1)NCCC2)CCOc1ccccn1)Nc1ncnc2ccccc12 [Compound 49, (S)-4-((2-(pyridin-2-yloxy)ethyl) (4-(5,6,7,8-tetrahydro-1,8-naphthyridin-2-yl)butyl)amino)-2-(quinazolin-4-ylamino) butanoic acid] in this work.
An IC50 of under 50 nM was found for O=C(O)[C@H](CCN(CCCCc1ccc2c(n1)NCCC2)CCOCC(F)F)Nc1ncnc2ccccc12 [Compound 50, (S)-4-((2-(2,2-difluoroethoxy)ethyl) (4-(5,6,7,8-tetrahydro-1,8-naphthyridin-2-yl)butyl)amino)-2-(quinazolin-4-ylamino) butanoic acid] in this work.
An IC50 of under 50 nM was found for O=C(O)[C@H](CCN(CCCCc1ccc2c(n1)NCCC2)CCOCC(F)(F)F)Nc1ncnc2cccnc12 [Compound 51, (S)-2-(pyrido[3,2-d]pyrimidin-4-ylamino)-4-((4-(5,6,7,8-tetrahydro-1,8-naphthyridin-2-yl)butyl) (2-(2,2,2-trifluoroethoxy)ethyl)amino) butanoic acid] in this work.
An IC50 of under 50 nM was found for Cc1ncccc1OCCN(CCCCc1ccc2c(n1)NCCC2)CC[C@H](Nc1ncnc2ccccc12)C(=O)O [Compound 52, (S)-4-((2-((2-methylpyridin-3-yl)oxy)ethyl) (4-(5,6,7,8-tetrahydro-1,8-naphthyridin-2-yl)butyl)amino)-2-(quinazolin-4-ylamino) butanoic acid] in this work.
